Measured values published in PubChem BioAssay AID2060485 (Molecular Pharmacology Branch, DTP, NCI, 2025).
pIC50: −log10 of the molar value.

Test system: A375 multi-cell spheroids with HUVEC/MSC, viability
Test: Anticancer human tumor A375 cell line growth inhibition [GQUAD];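 also: spheroids exposed to compounds for seven days before readout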
Details: for pIC50: curve of first compound; for viability, T/C: stronger effect = lower value
In short: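 Multi-cell-type spheroids of tumor cells with HUVEC and mesenchymal stem cells, treated with drug combinations. Concentrations descend in half-log steps from near clinical Cmax, or from 10 microM where Cmax is unknown; viability read-out.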

[1] = second compound 0.0316 µM, first compound 0.0316 µM
[2] = second compound 0.0316 µM, first compound 0.1 µM
[3] = second compound 0.0316 µM, first compound 0.316 µM
[4] = second compound 0.0316 µM, first compound 1 µM
[5] = second compound 0.0316 µM, first compound 3.16 µM
[6] = second compound 0.0316 µM, first compound 10 µM
[7] = second compound 0.1 µM, first compound 0.0316 µM
[8] = second compound 0.1 µM, first compound 0.1 µM
[9] = second compound 0.1 µM, first compound 0.316 µM
[10] = second compound 0.1 µM, first compound 1 µM
[11] = second compound 0.1 µM, first compound 3.16 µM
[12] = second compound 0.1 µM, first compound 10 µM
[13] = second compound 0.316 µM, first compound 0.0316 µM
[14] = second compound 0.316 µM, first compound 0.1 µM
[15] = second compound 0.316 µM, first compound 0.316 µM
[16] = second compound 0.316 µM, first compound 1 µM
[17] = second compound 0.316 µM, first compound 3.16 µM
[18] = second compound 0.316 µM, first compound 10 µM
[19] = second compound 1 µM, first compound 0.0316 µM
[20] = second compound 1 µM, first compound 0.1 µM
[21] = second compound 1 µM, first compound 0.316 µM
[22] = second compound 1 µM, first compound 1 µM
[23] = second compound 1 µM, first compound 3.16 µM
[24] = second compound 1 µM, first compound 10 µM
[25] = second compound 3.16 µM, first compound 0.0316 µM
[26] = second compound 3.16 µM, first compound 0.1 µM
[27] = second compound 3.16 µM, first compound 0.316 µM
[28] = second compound 3.16 µM, first compound 1 µM
[29] = second compound 3.16 µM, first compound 3.16 µM
[30] = second compound 3.16 µM, first compound 10 µM
[31] = second compound 10 µM, first compound 0.0316 µM
[32] = second compound 10 µM, first compound 0.1 µM
[33] = second compound 10 µM, first compound 0.316 µM
[34] = second compound 10 µM, first compound 1 µM
[35] = second compound 10 µM, first compound 3.16 µM
[36] = second compound 10 µM, first compound 10 µM

CCCS(=O)(=O)Nc1ccc(F)c(C(=O)c2c[nH]c3ncc(-c4ccc(Cl)cc4)cc23)c1F + Cc1cnc(CNC(=O)c2c(=O)c3ccc(N4CCCN(C)CC4)nc3n3c2sc2ccccc23)cn1
pIC50 (second compound 0.0316 µM): > 7.50 | pIC50 (second compound 0.1 µM): > 7.50 | pIC50 (second compound 0.316 µM): > 7.50 | pIC50 (second compound 1 µM): > 7.50 | pIC50 (second compound 3.16 µM): > 7.50 | pIC50 (second compound 10 µM): > 7.50 | viability, T/C [1]: 34.1% | viability, T/C [2]: 16.2% | viability, T/C [3]: 9.28% | viability, T/C [4]: 8.24% | viability, T/C [5]: 5.87% | viability, T/C [6]: 7.01% | viability, T/C [7]: 27.9% | viability, T/C [8]: 14.7% | viability, T/C [9]: 10.1% | viability, T/C [10]: 6.6% | viability, T/C [11]: 5.83% | viability, T/C [12]: 5.93% | viability, T/C [13]: 23.5% | viability, T/C [14]: 14% | viability, T/C [15]: 7.97% | viability, T/C [16]: 6.65% | viability, T/C [17]: 5.74% | viability, T/C [18]: 3.51% | viability, T/C [19]: 21.8% | viability, T/C [20]: 13.2% | viability, T/C [21]: 8.1% | viability, T/C [22]: 6.44% | viability, T/C [23]: 6.08% | viability, T/C [24]: 2.62% | viability, T/C [25]: 16.2% | viability, T/C [26]: 11.3% | viability, T/C [27]: 8.15% | viability, T/C [28]: 7.91% | viability, T/C [29]: 6.35% | viability, T/C [30]: 0.08% | viability, T/C [31]: 16% | viability, T/C [32]: 13.5% | viability, T/C [33]: 8.99% | viability, T/C [34]: 7.73% | viability, T/C [35]: 6.2% | viability, T/C [36]: 0.13%

COc1ncnc(C2CC2)c1-c1ncc2cnn(Cc3ccc(-c4nc(C(F)(F)F)cn4C(C)C)cc3)c2n1 + Cc1cnc(CNC(=O)c2c(=O)c3ccc(N4CCCN(C)CC4)nc3n3c2sc2ccccc23)cn1
pIC50 (second compound 0.0316 µM): < 5.00 | pIC50 (second compound 0.1 µM): < 5.00 | pIC50 (second compound 0.316 µM): > 7.50 | pIC50 (second compound 1 µM): > 7.50 | pIC50 (second compound 3.16 µM): > 7.50 | pIC50 (second compound 10 µM): > 7.50 | viability, T/C [1]: 101% | viability, T/C [2]: 110% | viability, T/C [3]: 102% | viability, T/C [4]: 103% | viability, T/C [5]: 104% | viability, T/C [6]: 111% | viability, T/C [7]: 69.3% | viability, T/C [8]: 73.5% | viability, T/C [9]: 57.3% | viability, T/C [10]: 61.4% | viability, T/C [11]: 70.3% | viability, T/C [12]: 61.2% | viability, T/C [13]: 49.3% | viability, T/C [14]: 43.6% | viability, T/C [15]: 47.1% | viability, T/C [16]: 49% | viability, T/C [17]: 46.2% | viability, T/C [18]: 47.7% | viability, T/C [19]: 36.2% | viability, T/C [20]: 35% | viability, T/C [21]: 34.5% | viability, T/C [22]: 38.5% | viability, T/C [23]: 33.5% | viability, T/C [24]: 33.5% | viability, T/C [25]: 29.6% | viability, T/C [26]: 37.2% | viability, T/C [27]: 30.9% | viability, T/C [28]: 33.5% | viability, T/C [29]: 31.7% | viability, T/C [30]: 33.9% | viability, T/C [31]: 30% | viability, T/C [32]: 26% | viability, T/C [33]: 27.6% | viability, T/C [34]: 26.4% | viability, T/C [35]: 32.7% | viability, T/C [36]: 31.9%

Cc1[nH]c2ccccc2c1CCNCc1ccc(/C=C/C(=O)NO)cc1 + Cc1cnc(CNC(=O)c2c(=O)c3ccc(N4CCCN(C)CC4)nc3n3c2sc2ccccc23)cn1
pIC50 (second compound 0.0316 µM): 6.95 | pIC50 (second compound 0.1 µM): 7.31 | pIC50 (second compound 0.316 µM): 7.44 | pIC50 (second compound 1 µM): > 9.00 | pIC50 (second compound 3.16 µM): > 9.00 | pIC50 (second compound 10 µM): > 9.00 | viability, T/C (second compound 0.0316 µM, first compound 0.000999 µM): 98.2% | viability, T/C (second compound 0.0316 µM, first compound 0.00316 µM): 103% | viability, T/C (second compound 0.0316 µM, first compound 0.00999 µM): 123% | viability, T/C [1]: 113% | viability, T/C (second compound 0.0316 µM, first compound 0.0999 µM): 54.4% | viability, T/C [3]: 10.3% | viability, T/C (second compound 0.1 µM, first compound 0.000999 µM): 74.6% | viability, T/C (second compound 0.1 µM, first compound 0.00316 µM): 69.7% | viability, T/C (second compound 0.1 µM, first compound 0.00999 µM): 74% | viability, T/C [7]: 60.5% | viability, T/C (second compound 0.1 µM, first compound 0.0999 µM): 31.7% | viability, T/C [9]: 8.85% | viability, T/C (second compound 0.316 µM, first compound 0.000999 µM): 54.1% | viability, T/C (second compound 0.316 µM, first compound 0.00316 µM): 55.5% | viability, T/C (second compound 0.316 µM, first compound 0.00999 µM): 49% | viability, T/C [13]: 53.9% | viability, T/C (second compound 0.316 µM, first compound 0.0999 µM): 25.2% | viability, T/C [15]: 8.14% | viability, T/C (second compound 1 µM, first compound 0.000999 µM): 37.2% | viability, T/C (second compound 1 µM, first compound 0.00316 µM): 42.2% | viability, T/C (second compound 1 µM, first compound 0.00999 µM): 39.4% | viability, T/C [19]: 35.4% | viability, T/C (second compound 1 µM, first compound 0.0999 µM): 18.7% | viability, T/C [21]: 1.63% | viability, T/C (second compound 3.16 µM, first compound 0.000999 µM): 35.6% | viability, T/C (second compound 3.16 µM, first compound 0.00316 µM): 30.9% | viability, T/C (second compound 3.16 µM, first compound 0.00999 µM): 35.5% | viability, T/C [25]: 34.1% | viability, T/C (second compound 3.16 µM, first compound 0.0999 µM): 13.6% | viability, T/C [27]: 0.08% | viability, T/C (second compound 10 µM, first compound 0.000999 µM): 30.9% | viability, T/C (second compound 10 µM, first compound 0.00316 µM): 25.6% | viability, T/C (second compound 10 µM, first compound 0.00999 µM): 29.1% | viability, T/C [31]: 25% | viability, T/C (second compound 10 µM, first compound 0.0999 µM): 8.95% | viability, T/C [33]: 0.14%
